In the assay the target is T1, human ferroportin (Homo sapiens, UniProt Q9NP59).
T1 construct: luciferase reporter (read with the Nano-Glo Luciferase Assay System); expressed in transfected cells; host or cells: CHO cells, stably transfected, expression induced with doxycycline
T1 sequence (Q9NP59 1-571): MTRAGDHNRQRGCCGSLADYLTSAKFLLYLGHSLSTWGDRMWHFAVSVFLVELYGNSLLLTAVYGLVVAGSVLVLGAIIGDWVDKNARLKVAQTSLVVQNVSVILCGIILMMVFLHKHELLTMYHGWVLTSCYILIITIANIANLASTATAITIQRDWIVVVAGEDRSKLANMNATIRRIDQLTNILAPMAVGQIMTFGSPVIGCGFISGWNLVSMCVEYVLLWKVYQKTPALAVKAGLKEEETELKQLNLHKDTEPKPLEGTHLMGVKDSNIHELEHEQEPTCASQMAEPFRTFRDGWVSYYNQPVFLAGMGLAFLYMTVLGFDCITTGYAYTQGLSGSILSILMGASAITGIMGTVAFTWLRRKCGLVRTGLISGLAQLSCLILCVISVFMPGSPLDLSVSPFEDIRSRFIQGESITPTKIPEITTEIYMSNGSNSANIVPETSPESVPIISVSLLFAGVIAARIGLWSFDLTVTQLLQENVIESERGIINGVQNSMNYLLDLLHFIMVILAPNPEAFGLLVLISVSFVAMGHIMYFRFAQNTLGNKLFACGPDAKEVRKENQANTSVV
Description: Biological in-vitro ferroportin internalization assay (luciferase reporter). In kind it is cell-based. The note with it: average pEC50; stably-transfected CHO cell line expressing human ferroportin tagged to a luciferase reporter; 6 h incubation with test compound. The method in brief: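 Stably transfected CHO cells expressing luciferase-tagged human ferroportin, plated 24 h with ferric ammonium citrate and induced with doxycycline for 24 h. Compounds incubated 6 h, then luciferase activity measured by Nano-Glo; average pEC50 reported.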

Our source for the pEC50 values is patent US11746100B2 (GLOBAL BLOOD THERAPEUTICS, INC., priority 2020, dated 2023).

Turning to `CN(C)c1ccnc(-c2nc3c(c(N(C)CC(=O)NC(C)(C)C)n2)CCC3)c1` [Compound 102, N-tert-butyl-2-({2-[4-(dimethylamino)pyridin-2-yl]-5H,6H,7H-cyclopenta[d]pyrimidin-4-yl}(methyl)amino)acetamide], the negative-log EC50 (pEC50) is 7.1.
Then `Cc1cccnc1-c1nc2c(c(N(C)CC(=O)NC(C)(C)C)n1)CCC2` [Compound 103, N-tert-butyl-2-{methyl[2-(3-methylpyridin-2-yl)-5H,6H,7H-cyclopenta[d]pyrimidin-4-yl]amino}acetamide], with 6.4; and `Cc1ccc(-c2nc3c(c(N(C)CC(=O)NC(C)(C)C)n2)CCC3)nc1` [Compound 104, N-tert-butyl-2-{methyl[2-(5-methylpyridin-2-yl)-5H,6H,7H-cyclopenta[d]pyrimidin-4-yl]amino}acetamide], with 7.2.
On to `Cc1ccnc(-c2nc3c(c(N(C)CC(=O)NC4(C)CCCC4)n2)CCC3)c1` [Compound 105, 2-{methyl[2-(4-methylpyridin-2-yl)-5H,6H,7H-cyclopenta[d]pyrimidin-4-yl]amino}-N-(1-methylcyclopentyl)acetamide], for which the pEC50 came to 7.7.
Molecule `CN(CC(=O)NC(C)(C)C)c1nc(-c2ncc(CCO)s2)nc2c1CCC2` [Compound 107, N-tert-butyl-2-({2-[5-(2-hydroxyethyl)-1,3-thiazol-2-yl]-5H,6H,7H-cyclopenta[d]pyrimidin-4-yl}(methyl)amino)acetamide] gave a negative-log EC50 (pEC50) of 5.7.
In turn, `C[C@H](C(=O)NC1CCCCC1)N(C)c1nc(-c2ccccn2)nc2c1CCC2` [Compound 108, (2R)—N-cyclohexyl-2-{methyl[2-(pyridin-2-yl)-5H,6H,7H-cyclopenta[d]pyrimidin-4-yl]amino}propanamide] registered a pEC50 of 7.6.
`C[C@H](C(=O)NC1CC(F)(F)C1)N(C)c1nc(-c2ccccn2)nc2c1CCC2` [Compound 109, (2R)—N-(3,3-difluorocyclobutyl)-2-{methyl[2-(pyridin-2-yl)-5H,6H,7H-cyclopenta[d]pyrimidin-4-yl]amino}propanamide] gave a pEC50 of 7.
`CN(CC(=O)NC(C)(C)C)c1nc(-c2cc3cn[nH]c3cn2)nc2c1CCC2` [Compound 110, N-tert-butyl-2-[methyl(2-{1H-pyrazolo[3,4-c]pyridin-5-yl}-5H,6H,7H-cyclopenta[d]pyrimidin-4-yl)amino]acetamide] gave a pEC50 of 7.9.
Consider `CN(CC(=O)NC1(C(F)(F)F)CC1)c1nc(-c2cn(C)cn2)nc2c1CCC2` [Compound 111, 2-{methyl[2-(1-methyl-1H-imidazol-4-yl)-5H,6H,7H-cyclopenta[d]pyrimidin-4-yl]amino}-N-[1-(trifluoromethyl)cyclopropyl]acetamide], for which the pEC50 came to 7.2.
On to `C[C@H](C(=O)NC(C)(C)C)N(C)c1nc(-c2cn(C)cn2)nc2c1CCC2` [Compound 112, (2R)—N-tert-butyl-2-{methyl[2-(1-methyl-1H-imidazol-4-yl)-5H,6H,7H-cyclopenta[d]pyrimidin-4-yl]amino}propanamide], for which the pEC50 worked out at 8.
The molecule `CN(CC(=O)NC(C)(C)C)c1nc(-c2cc(CCO)ccn2)nc2c1CCC2` [Compound 113, N-tert-butyl-2-({2-[4-(2-hydroxyethyl)pyridin-2-yl]-5H,6H,7H-cyclopenta[d]pyrimidin-4-yl}(methyl)amino)acetamide] gave a pEC50 of 7.7.
`CC(C)[C@H](C(=O)NC(C)(C)C)N(C)c1nc(-c2ccccn2)nc2c1CCC2` [Compound 114, (2R)—N-tert-butyl-3-methyl-2-{methyl[2-(pyridin-2-yl)-5H,6H,7H-cyclopenta[d]pyrimidin-4-yl]amino}butanamide] gave a pEC50 of 7.6.
The molecule `CC(C)[C@@H](C(=O)NC(C)(C)C)N(C)c1nc(-c2ccccn2)nc2c1CCC2` [Compound 115, (2S)—N-tert-butyl-3-methyl-2-{methyl[2-(pyridin-2-yl)-5H,6H,7H-cyclopenta[d]pyrimidin-4-yl]amino}butanamide] showed a pEC50 of 7.1.
Consider `CSCC[C@H](C(=O)NC(C)(C)C)N(C)c1nc(-c2ccccn2)nc2c1CCC2` [Compound 116, (2R)—N-tert-butyl-2-{methyl[2-(pyridin-2-yl)-5H,6H,7H-cyclopenta[d]pyrimidin-4-yl]amino}-4-(methylsulfanyl)butanamide], for which the pEC50 was 7.4.
The molecule `CSCC[C@@H](C(=O)NC(C)(C)C)N(C)c1nc(-c2ccccn2)nc2c1CCC2` [Compound 117] registered a pEC50 of 6.9.
`C[C@H](C(=O)NC1CCCCC1)N(C)c1nc(-c2cn(C)cn2)nc2c1CCC2` [Compound 118, (2R)—N-cyclohexyl-2-{methyl[2-(1-methyl-1H-imidazol-4-yl)-5H,6H,7H-cyclopenta[d]pyrimidin-4-yl]amino}propanamide]: the pEC50 is 7.8.
As for `COc1ccnc(-c2nc3c(c(N(C)[C@H](C)C(=O)NC4CCCCC4)n2)CCC3)c1` [Compound 119, (2R)—N-cyclohexyl-2-{[2-(4-methoxypyridin-2-yl)-5H,6H,7H-cyclopenta[d]pyrimidin-4-yl](methyl)amino}propanamide], the pEC50 was determined as 7.7.
The result for `CN(c1nc(-c2ccccn2)nc2c1CCC2)[C@@H](COC(C)(C)C)C(=O)NC(C)(C)C` [Compound 120, (2S)-3-(tert-butoxy)-N-tert-butyl-2-{methyl[2-(pyridin-2-yl)-5H,6H,7H-cyclopenta[d]pyrimidin-4-yl]amino}propanamide] reads 7.2; that for `CN(c1nc(-c2ccccn2)nc2c1CCC2)[C@H](COC(C)(C)C)C(=O)NC(C)(C)C` [Compound 121, (2R)-3-(tert-butoxy)-N-tert-butyl-2-{methyl[2-(pyridin-2-yl)-5H,6H,7H-cyclopenta[d]pyrimidin-4-yl]amino}propanamide], 7.9.
Then `CN(CC(=O)NC(C)(C)C)c1nc(-c2cc3c(cn2)OCCO3)nc2c1CCC2` [Compound 122, N-tert-butyl-2-[(2-{2H,3H-[1,4]dioxino[2,3-c]pyridin-7-yl}-5H,6H,7H-cyclopenta[d]pyrimidin-4-yl)(methyl)amino]acetamide], with 7.8; and `CN(c1nc(-c2ccccn2)nc2c1CCC2)[C@@H](CO)C(=O)NC(C)(C)C` [Compound 123, (2S)—N-tert-butyl-3-hydroxy-2-{methyl[2-(pyridin-2-yl)-5H,6H,7H-cyclopenta[d]pyrimidin-4-yl]amino}propanamide], with 7.2.
With `CN(c1nc(-c2ccccn2)nc2c1CCC2)[C@H](CO)C(=O)NC(C)(C)C` [Compound 124, (2R)—N-tert-butyl-3-hydroxy-2-{methyl[2-(pyridin-2-yl)-5H,6H,7H-cyclopenta[d]pyrimidin-4-yl]amino}propanamide], the pEC50 stood at 7.
In the case of `CN(CC(=O)NC(C)(C)C)c1nc(-c2cn(C)cn2)nc2c1CCC2` [Compound 125, N-tert-butyl-2-{methyl[2-(1-methyl-1H-imidazol-4-yl)-5H,6H,7H-cyclopenta[d]pyrimidin-4-yl]amino}acetamide], the pEC50 worked out at 7.5.
On to `CCN(CC(=O)NC(C)(C)C)c1nc(-c2cc(OC)ccn2)nc2c1CCC2` [Compound 126, N-tert-butyl-2-{ethyl[2-(4-methoxypyridin-2-yl)-5H,6H,7H-cyclopenta[d]pyrimidin-4-yl]amino}acetamide], for which the pEC50 worked out at 7.9.
